# Results from patent US4377587A, “Arylamine derivatives and use thereof as microbicides” (Ciba-Geigy Corporation, priority 1980, dated 1983).
# Key:
# Phytophthora infestans [1] = format: in vivo, Phytophthora infestans (on tomato plants); conditions: tomato, spray 0.06% active ingredient, infested after 24 hours, evaluated after 5 days at 20° C.
# Phytophthora infestans [2] = format: in vivo, Phytophthora infestans (on tomato plants); conditions: tomato, sprayed 0.06% active ingredient 22 hours after infestation, evaluated 5 days after infestation
# Pythium debaryanum [3] = assay: Action on Pythium debaryanum on sugar beets, (a) after soil application; format: in vivo; conditions: sugar beet, 20 ppm of active ingredient based on volume of soil, 2-3 weeks at 20°-24° C.
# Source text: (§1) Action on Pythium debaryanum on sugar beets
# (a) Action after soil application
# The fungus is cultivated on carrot chips nutrient solution and added to a mixture of earth and sand. Flower pots are filled with the infected soil, in which sugar beet seeds are then sown. Immediately after sowing, the test preparations formulated as wettable powders are poured in the form of aqueous suspensions over the soil (20 ppm of active ingredient, based on the volume of the soil). The pots are then stood for 2-3 weeks in a greenhouse at 20°-24° C. The soil is kept uniformly moist by gently spraying it with water. The emergence of the sugar beet plants as well as the number of healthy and sick plants are ascertained in evaluating the test.
# Pythium debaryanum [4] = assay: Action on Pythium debaryanum on sugar beets, (b) after seed dressing application; format: in vivo; conditions: sugar beet, seed dressing 0.06%, 2-3 weeks at c. 20° C.
# Method: as §1
# (b) Action after seed dressing application
# The fungus is cultivated on carrot chip nutrient solution and added to a mixture of earth and sand. Flower pots are filled with the infected soil and sugar beet seeds which have been treated with the test preparations formulated as seed dressing powders are sown therein (0.06% of one of the compounds of Tables 1 and 2). The pots are then stood in a greenhouse for 2-3 weeks at c. 20° C. The soil is kept uniformly moist by gently spraying it with water. The emergence of the sugar beet plants is ascertained in evaluating the test.
# Podosphaera leucotricha = assay: Residual-protective action against Podosphaera leucotricha on apples; format: in vivo; conditions: apple seedlings, spray 0.06% of active ingredient, evaluated 12 days after infection
# Method: Residual-protective action against Podosphaera leucotricha on apples
# Apple seedlings in the 5-leaf stage are sprayed with a spray mixture (0.06% of active ingredient) prepared from a wettable powder formulation of the active ingredient. After 24 hours the treated plants are infected with a conidia suspension of the fungus and placed in a climatic chamber at 70% relative humidity and 20° C. Evaluation of fungus infestation is made 12 days after infection.
# Water solubility = format: physicochemical; conditions: 25° C.
# Source text: (§2) Determination of physico-chemical data
# (a) Reduced water solubility
# [5] = Volatility: evaporation half-life T50 in an evaporating tube; format: physicochemical; conditions: 50° C., stream of air of 20 m/h, relative to T50 of Metalaxyl
# Method: as §2
# In an evaporating tube, the evaporation half-life values T50 of representative fungicides of this invention are determined at 50° C. and in a stream of air of 20 m/h. The values are shown below, relative to the corresponding half-life T50 of Metalaxyl.
# Venturia inaequalis = assay: Residual-protective action against Venturia inaequalis on apple shoots; format: in vivo; conditions: spray 0.06%, evaluated 15 days after infection
# Method: Residual-protective action against Venturia inaequalis on apple shoots
# Apple cuttings with 10-20 cm long fresh shoots are sprayed with a spray mixture prepared from a wettable powder formulation of the active ingredient (0.06%). After 24 hours the treated plants are infected with a conidia suspension of the fungus. The plants are then incubated for 5 days at 90-100% relative humidity and stood in a greenhouse for a further 10 days at 20°-24° C. Scab infestation is evaluated 15 days after infection.
# Erysiphe graminis = assay: Action against Erysiphe graminis on barley, residual protective action; format: in vivo, Erysiphe graminis (on barley plants); conditions: 0.02% active ingredient sprayed, infected after 3-4 hours, evaluated after 10 days
# Method: Action against Erysiphe graminis on barley
# Residual protective action
# Barley plants about 8 cm in height are sprayed with a spray mixture (0.02% of active ingredient) prepared from the active ingredient formulated as a wettable powder. The treated plants are dusted with conidia of the fungus after 3-4 hours. The infected barley plants are then stood in a greenhouse at about 22° C. The extent of the fungus infection is evaluated after 10 days.
Compound,"fungus attack compared with untreated control plants (100% attack), residual-protective (Phytophthora infestans [1])","fungus attack compared with untreated and infected control plants (100% attack), residual curative (Phytophthora infestans [2])","emergent plants (fully effective against Pythium pathogens), soil application (Pythium debaryanum [3])","emergent plants (fully effective against Pythium pathogens), seed dressing application (Pythium debaryanum [4])",fungus attack compared with untreated and infected control seedlings (100% attack) (Podosphaera leucotricha),solubility (Water solubility),Multiple of Metalaxyl T50 (evaporation half-life) [5],scab infestation (reduced to) (Venturia inaequalis),fungus attack compared with control plants (100% attack) (Erysiphe graminis)
"COCC(=O)N(c1c(C)cccc1N)C(C)C(=O)OC (centres unmarked) [Compound 2, N-(1'-methoxycarbonylethyl)-N-methoxyacetyl-2-amino-6-methyl-aniline]",less than 10%,less than 10%,over 90%,over 90%,less than 10%,300 µg/mL,5.4 ×,–,–
COCC(=O)N(c1c(N)cccc1Cl)C(C)C(=O)OC (centres unmarked) [Compound 6],less than 10%,less than 10%,over 90%,over 90%,less than 10%,–,–,–,–
"COCC(=O)N(c1c(N)ccc(C)c1C)C(C)C(=O)OC (centres unmarked) [Compound 8, N-(1'methoxycarbonylethyyl)-N-methoxyacetyl-2,3-dimethyl-6-aminoaniline]",less than 10%,less than 10%,over 90%,over 90%,less than 10%,–,–,10-15%,–
"COCC(=O)N(c1c(C)ccc(N)c1C)C(C)C(=O)OC (centres unmarked) [Compound 10, N-(1'methoxycarbonylethyl)-N-methoxyacetyl-2,6-dimethyl-3-aminoaniline]",less than 10%,less than 10%,over 90%,over 90%,less than 10%,–,–,10-15%,less than 10%
"COCC(=O)N(c1c(C)ccc([N+](=O)[O-])c1C)C(C)C(=O)OC (centres unmarked) [Compound 28, N-(1'-methoxycarbonylethyl)-N-methoxyacetyl-2,6-dimethyl-3-nitroaniline]",less than 10%,less than 10%,over 90%,over 90%,less than 10%,2500 µg/mL,35.8 ×,10-15%,–
"COCC(=O)N(c1c(C)ccc([N+](=O)[O-])c1C)C(C)C(=O)OC(C)C (centres unmarked) [Compound 33, N-(1'-isopropyloxycarbonylethyl)-N-methoxyacetyl-2,6-dimethyl-3-nitroaniline]",less than 10%,less than 10%,over 90%,over 90%,less than 10%,500 µg/mL,45.6 ×,–,–
COC(=O)C(C)N(C(=O)CS(C)(=O)=O)c1c(C)ccc([N+](=O)[O-])c1C (centres unmarked) [Compound 38],less than 10%,–,–,–,–,–,–,–,less than 10%
"COCC(=O)N(c1c(C)cccc1[N+](=O)[O-])C(C)C(=O)OC (centres unmarked) [Compound 48, N-(1'-methoxycarbonylethyl)-N-methoxyacetyl-2-methyl-6-nitroaniline]",less than 10%,less than 10%,over 90%,over 90%,less than 10%,4000 µg/mL,12.3 ×,–,–
"COCC(=O)N(c1c([N+](=O)[O-])ccc(C)c1C)C(C)C(=O)OC (centres unmarked) [Compound 59, N-(1'methoxycarbonylethyl)-N-methoxyacetyl-2,3-dimethyl-6-nitroaniline]",less than 10%,less than 10%,over 90%,over 90%,–,–,–,–,–
CCOCC(=O)N(c1c(C)ccc([N+](=O)[O-])c1C)C(C)C(=O)OC(C)C (centres unmarked) [Compound 73],less than 10%,–,over 90%,over 90%,less than 10%,–,–,–,–
CCOCC(=O)N(c1cccc([N+](=O)[O-])c1C)C(C)C(=O)OC (centres unmarked) [Compound 104],–,–,–,–,–,–,–,–,less than 10%
CCOCC(=O)N(c1c(Cl)ccc([N+](=O)[O-])c1C)C(C)C(=O)OC (centres unmarked) [Compound 107],–,less than 10%,over 90%,over 90%,–,–,–,–,less than 10%
CCOCC(=O)N(c1c(C)c(C)c([N+](=O)[O-])c(C)c1C)C(C)C(=O)OC (centres unmarked) [Compound 142],less than 10%,less than 10%,–,–,–,–,–,–,less than 10%
"COCC(=O)N(c1c([N+](=O)[O-])ccc2ccccc12)C(C)C(=O)OC (centres unmarked) [Compound 400, N-(1'methoxycarbonylethyl)-N-methoxyacetyl-2-nitronaphthylamine]",less than 10%,less than 10%,over 90%,over 90%,–,–,–,–,–
COCC(=O)N(c1c(C)cc([N+](=O)[O-])c2ccccc12)C(C)C(=O)OC (centres unmarked) [Compound 606],less than 10%,less than 10%,over 90%,over 90%,less than 10%,–,–,–,–
"COCC(=O)N(c1c(N)ccc2ccccc12)C(C)C(=O)OC (centres unmarked) [Compound 701, 1N-(1'-methoxycarbonylethyl)-1N-methoxyacetyl-1,2-diaminonaphthalene]",less than 10%,less than 10%,over 90%,over 90%,–,–,–,10-15%,–
"COCC(=O)N(c1c(C)cccc1C)[C@@H](C)C(=O)OC [Metalaxyl, N-(2,6-dimethylphenyl)-N-(2'-methoxyacetyl)alanine methyl ester, reference compound]",–,–,–,–,–,800 µg/mL,–,–,–
